Reference: PMC11814485, “Screening of homing and tissue-penetrating peptides by microdialysis and in vivo phage display” (Life Science Alliance, 2025)

Columns and labels:
[1] = system: CHO-K cells; assay: Peptide internalization in vitro, confocal imaging, CHO-K cells; type: cell-based, Chinese hamster; conditions: FAM-labeled peptide 20 μM, 3 h, 37°C, confocal fluorescence imaging, representative of three experiments
Method: Figure 1. Microdialysis-captured peptides penetrate the cell membrane. […] CHO-K cells were grown on chamber slides. […] The scale bar is 20 μm. Images are representative of three individual experiments.
Plain growth medium was used as a negative control.

[2] = system: retina (OIR model); assay: Homing of FAM-peptides to retina and vitreous in oxygen-induced retinopathy (OIR) and to normal retina; type: in vivo, mouse (C57BL/6Rj); conditions: for peptide accumulation in the vitreous of the OIR retina relative to the control peptide / area of positive staining in OIR retina relative to a control peptide: OIR mice P17, 5 mg/kg, 120 min circulation, anti-FAM; for area of positive staining in OIR retina relative to a control peptide: N = 8; for homing signal in OIR retinas around retinal and preretinal blood vessels: OIR mice P17, 120 min, anti-FAM staining
Method: Figure 3. Microdialysis-captured peptides home to skin wounds and penetrate blood–retina barrier in retinopathy. Systemically administered homing peptides CDD, CPK, and CYH accumulate in skin wounds and penetrate blood–retina barrier in retinopathy. Full-thickness wounds, 6 mm in diameter, in the back skin of 8-wk-old male mice were used. After 7 d, each peptide or PBS was injected into the tail vein. For retinopathy experiments, oxygen-induced retinopathy (OIR) was induced by placing mouse pups at day P7 in a hyperoxia chamber for 5 d. On P17, when the angiogenesis peaks in this OIR model, the peptides were injected into the tail vein. The peptides circulated for 150 min (wounds) and 120 min (OIR) before the vasculature was thoroughly perfused. The skin wounds and eyeballs were fixed, and histological samples stained with anti-FAM and hematoxylin. Peptide homing was quantified with the automated image analysis system. (A) Microdialysis-identified peptides home to skin wounds. […] (D) All three microdialysis-identified peptides also accumulate substantially in the vitreous in the OIR model. *P < 0.05, **P < 0.01, ***< 0.001. Each datapoint represents an individual wound, retina, or vitreous. N = 3 for skin wound, and N = 6 and N = 8 for normal and OIR retinas.
We wanted to explore whether the new wound-penetrating peptides externalize and penetrate tissues that have an additional barrier around the blood vessels. The retinal blood vessels have an additional element, blood–retina barrier (BRB) that hinders the access of systemically administered drugs to retina ([Lahdenranta et al, 2007]; [Sweeney et al, 2019]; [Vähätupa, et al, 2020b]). Thus, we explored the homing of the new peptides to the normal retina and to the retinal angiogenesis in the oxygen-induced retinopathy (OIR) model ([Vähätupa, et al, 2020b]). […] Next, we quantified the area of positive staining in the retina. There was ninefold more of CYH (P < 0.01) and 120-fold and 88-fold more of CDD and CPK than of a control peptide in OIR retinas (P < 0.0001 for the CDD and CPK peptides) (Fig 3C).
Figure 4. Microdialysis-captured peptides home and penetrate to retina in retinopathy. The CDD, CPK, and CYH peptides accumulate in the retina and vitreous in oxygen-induced retinopathy (OIR). The OIR model was carried out as described previously ([Vähätupa et al, 2020b]). At P17, the peptides were injected into the tail vein and circulated for 120 min before the vasculature was thoroughly perfused. The eyeballs were fixed and histological sections stained with anti-FAM antibody and hematoxylin. (A) None of the tested peptides homed to the normal retina after the systemic administration at P17. (B) Three microdialysis-identified homing peptides homed and penetrated into the retina in OIR at the peak of angiogenesis at P17. The peptides also accumulate in the vitreous in the OIR model. (A, B, C) High-magnification images of peptide accumulation in OIR retina. The scale bar is 100 μm for (A, B) and 20 μm for (C). Images are representative of N = 6 and N = 8 for normal and OIR retinas.
WT C57BL/6Rj mice were used for the OIR experiments ([Vähätupa, et al, 2020a]). The OIR model was performed as described in detail previously ([Vähätupa, et al, 2020a]; [De Rossi et al, 2021]). Briefly, to induce retinopathy in the retina, the pups and their nursing mothers were exposed to 75% oxygen in a custom-made chamber (ProOx P110 oxygen controller; BioSpherix Ltd.) at postnatal day 7 (P7) for 5 d until P12 when they were returned to normal room air. The homing experiments were performed at P17 (late hypoxic phase and the peak of neovascularization) ([Vähätupa et al, 2021]). Control animals were housed under normal room air conditions, and retinas were harvested on the corresponding day (P17). All retina experiments were conducted under the ARVO Statement for the Use of Animals in Ophthalmic and Vision Research guidelines. […]

| Sequence | cellular uptake in CHO-K cells [1] | peptide accumulation in the vitreous of the OIR retina relative to the control peptide [2] | area of positive staining in OIR retina relative to a control peptide [2] | homing signal in OIR retinas around retinal and preretinal blood vessels [2] |
| --- | --- | --- | --- | --- |
| CDDYQQISC [FAM-labeled synthetic peptide …] | accumulate in the CHO-K cells | 67.2 × | 120 fold | strong homing signal |
| CPKKHHLDC [FAM-labeled synthetic peptide …] | accumulate in the CHO-K cells | 80.3 × | 88 fold | strong homing signal |
| CYHDTYPNC [FAM-labeled synthetic peptide …] | accumulate in the CHO-K cells | 16.9 × | ninefold | strong homing signal |
